Reference: ChEMBL document CHEMBL1833922, “A compound isolated from Schisandra chinensis induces apoptosis” (2011)
Active and inactive are the calls of the source. No cut-off for these calls is given here.

Assays:
HCT-116 [1] = assay: Induction of apoptosis in human HCT116 cells assessed as accumulation of cleaved caspase-7 at 10 uM after 48 hrs by Western blot analysis; type: functional, cell-based
HCT-116 [2] = assay: Induction of apoptosis in human HCT116 cells assessed as increase in cleaved PARP level at 10 uM by Western blot analysis; type: functional, cell-based; conditions: TDE = time-dependent effect
HCT-116 [3] = assay: Anticlonogenic activity against human HCT116 cells at 2 uM after 7 days using crystal violet staining; type: functional
HCT-116 [4] = assay: Antiproliferative activity against human HCT116 cells assessed as cell growth inhibition at 10 to 40 uM by WST-8 assay; type: functional, cell-based; conditions: TDE = time-dependent effect
HCT-116 [5] = assay: Antiproliferative activity against human HCT116 cells assessed as cell growth inhibition after 12 to 48 hrs by WST-8 assay; type: functional, cell-based
HCT-116 [6] = assay: Induction of apoptosis in human HCT116 cells assessed as shrunken nuclei at 10 uM after 48 hrs by fluorescence microscopy method; type: functional, cell-based
HCT-116 [7] = assay: Induction of apoptosis in human HCT116 cells assessed as fragmented nuclei at 10 uM after 48 hrs by fluorescence microscopy method; type: functional, cell-based
HCT-116 [8] = assay: Induction of apoptosis in human HCT116 cells assessed as condensed chromatin at 10 uM after 48 hrs by fluorescence microscopy method; type: functional, cell-based

SMILES	Activity (HCT-116 [1])	Activity (HCT-116 [2])	Activity (HCT-116 [3])	growth inhibition (GI) (HCT-116 [4])	growth inhibition (GI) (HCT-116 [5])	Activity (HCT-116 [6])	Activity (HCT-116 [7])	Activity (HCT-116 [8])
COc1cc2c(c(OC)c1OC)-c1c(cc3c(c1OC)OCO3)C[C@H](C)[C@](C)(O)C2	Active	–	–	–	–	–	–	–
COc1cc2c(c(OC)c1OC)-c1c(cc3c(c1OC)OCO3)C[C@@H](C)[C@](C)(O)C2	Active	tde	50%	tde	Dose-dependent effect	Active	Active	Active
